US20240277744A1, “TREATMENT OF CHEMORESISTANT CANCER CELLS” (Cornell University, priority 2023, published 2024)

Assays:
SW1990GR cells [1] = test: Cell viability (DAPI nuclei count, high content imaging); assay type: cell-based; conditions: 72 h, CYM 0-500 nM, 3 days, read-out: IC50, viability
Method: To establish GR cell lines, cells were first cultured with 10 nM GEM till cell growth became stable. […] Once cell growth became stable in 100 nM GEM, cells were expanded in 100 nM GEM and used in assays.
Cell viability, colony formation, sphere formation and growth curve. To quantify viability, cells were plated into 96-well plates (6000/well) one night before treatment. […] After fixation, cell nuclei were stained with DAPI (Invitrogen). Plates were analyzed using MetaXpress High Content Image Acquisition and Analysis System (Molecular Devices).

DU145 cell line = test: Flow cytometry of TRA-1-81+ cells; assay type: cell-based; conditions: DU145, 25 nM CYM, 5 days
Method: (§1) Flow cytometry. TRA-1-60 PerCP-efluor710 (eBioscience, 1:50) and TRA-1-81 PE (eBioscience, 1:100) were used. Cells were blocked with 5% FBS plus mouse IgM isotype control antibody (eBioscience, 1:100) at room temperature for 15 min, then stained on ice for 30 min. Stained cells were resuspended in PBS containing 300 nM DAPI and proceeded to analysis or sorting. Cell apoptosis was analyzed with FITC-AnnexinV labeling reagent (BD). Flow cytometry analysis was carried out on BD FACS Calibur with FlowJo 9.8 software. Sorting was performed with FACSVantage SE (Becton Dickinson).

HCT116 cell line = test: Flow cytometry of TRA-1-81+ cells; assay type: cell-based; conditions: HCT-116, 25 nM CYM, 5 days
Method: as §1

TRA-1-81+ SW1990 cells = test: Flow cytometry of TRA-1-81+ cells; assay type: cell-based
Method: as §1

TRA-1-81+ SW1990GR cells = test: Flow cytometry of TRA-1-81+ cells; assay type: cell-based
Method: as §1

[2] = system: UGT1A10 transcript in SW1990 cells; test: qRT-PCR of UGT1A10 expression; assay type: cell-based; conditions: SW1990, CYM treatment
Method: (§2) qRT-PCR. Reverse transcription reaction was prepared with 0.5-2 μg total RNA using High Capacity cDNA Reverse Transcription Kit (Applied Biosystems). Products were diluted 10 folds with DNase&RNase free water as template. qPCR reactions were prepared with 2× LightCycler 480 SYBR Green I Master reagent (Roche) and proceeded in LightCycler 480 II (Roche) with software LightCycler 480 SW1.5.1 for signal acquisition and processing. ACTB was employed as internal reference. Primers were listed below: […]

[3] = system: UGT1A10 transcript in SW1990GR cells; test: qRT-PCR of UGT1A10 expression; assay type: cell-based
Method: as §2

SW1990 cells = test: Growth curve / proliferation assay; assay type: cell-based; conditions: SW1990, 50 nM CYM
Method: (§3) To quantify growth, Cells were seeded into 96-well plates (2000/well). After overnight incubation, medium with indicated drug was refreshed. Cell proliferation was quantified every 2 days using CellTiter 96® AQueous Non-Radioactive Cell Proliferation Assay (Promega).

SW1990GR cells [4] = test: Growth curve / proliferation assay; assay type: cell-based; conditions: 25 nM CYM
Method: as §3

SW1990 xenograft tumors = test: Luciferase-labeled SW1990 xenograft in nude mice; assay type: in vivo
Method: CYM suppresses TRA-1-60 expression and blocks tumor growth in vivo. Next it was sought to validate the effects of CYM in vivo, using a xenograft model with luciferase-labeled SW1990 cells propagated in nude mice. Tumor-harboring mice were separated into 4 groups and treated with PBS (control), 2 mg/kg CYM, 50 mg/kg GEM, or 2 mg/kg CYM plus 50 mg/kg GEM through intraperitoneal injections twice per week. Luciferase intensity was quantified twice per week and normalized with the value obtained from the starting day. […] Consistent with imaging, of the four groups, mice treated with GEM plus CYM generated xenograft tumors with the smallest size (FIG. 6C) and weight (FIG. 6D).
Tissue samples were fixed with 4% paraformaldehyde overnight at 4° C., washed with 70% ethanol and then embedded in paraffin. After De-paraffin and rehydration, antigen retrieval was preceded in hot antigen retrieving buffer with a normal-pressure steamer for 30 min. blocking was proceeded 1 hour at room temperature in PBS containing 1% horse serum. Primary antibody was stained overnight at 4° C. in PBS plus 0.5% Triton X-100 and 5% horse serum. Secondary antibody was incubated at room temperature for 1.5 hours.
Mouse Procedures. To assess in vivo effects of Cymarin (CYM), Luciferase-labelled SW1990 cells were transplanted to nude mice subcutaneously. Each mouse received four injections (5×10^5 cells/site). 12 days later, mice were randomly separated into 4 groups and treated with PBS (control), GEM (50 mg/kg bodyweight), CYM (2 mg/kg bodyweight) or GEM (50 mg/kg bodyweight) plus CYM (2 mg/kg bodyweight) twice weekly via intraperitoneal injection. Image acquisition was performed twice weekly with Xtreme Optical and X-ray small animal imaging system. Luciferin potassium salt (Regis), substrate of luciferase, was applied at 2 mg/25 g bodyweight in 150 μl PBS. Isoflurane (Henry Schein) was used for anesthesia during imaging.

[5] = system: UGT1A10 overexpressing SW1990 cells; test: Cell viability of UGT1A10 overexpressing cells; assay type: cell-based; conditions: 50 nM CYM, control vs UGT1A10 overexpressing SW1990
Source text: To determine whether UTG1A10 is sufficient to induce TRA-1-81 expression and chemoresistance, UGT1A10 was overexpressed ectopically in SW1990 cells (UGT-OE). Cells expressing firefly luciferase were used as control (CTRL). […] Indeed, the viability of UGT-OE cells is higher than control cells following GEM treatment (FIG. 4G). […] In summary, UGT1A10 is both required and sufficient to enhance TRA-1-60 and TRA-1-81 expression and chemoresistance.
LentiLuc-blast and LentiUGT1A10-blast plasmid were generated based on LentiCas9-blast vector (Addgene, 52926). Luciferasec DNA was cloned from pGL3-promoter plasmid (Promega) with PCR amplification and inserted between AgeI and BamHI sites. UGT1A10 cDNA was PCR amplified from plasmid purchased from Dharmacon (MHS6278-202756114) and inserted between XbaI and BamHI sites. Primers were used as below: […]
Cell viability, colony formation, sphere formation and growth curve. To quantify viability, cells were plated into 96-well plates (6000/well) one night before treatment. Drugs were then added in indicated dose for 5 days. After fixation, cell nuclei were stained with DAPI (Invitrogen). Plates were analyzed using MetaXpress High Content Image Acquisition and Analysis System (Molecular Devices).

hESCs = conditions: cited from earlier work

CO[C@H]1C[C@H](O[C@H]2CC[C@]3(C=O)[C@H]4CC[C@]5(C)[C@@H](C6=CC(=O)OC6)CC[C@]5(O)[C@@H]4CC[C@]3(O)C2)O[C@H](C)[C@H]1O [CYM, Cymarin]
IC50 (SW1990GR cells [1]): 40.8 ± 3.1 nM | percentage of TRA-1-81+ cells (DU145 cell line): decreased | percentage of TRA-1-81+ cells (HCT116 cell line): decreased | IC50 (TRA-1-81+ SW1990 cells; Homo sapiens, SW1990, read-out: IC50, repression of TRA-1-81+ cells): 6.3 ± 2.2 nM | TRA-1-81+ cells in time course (TRA-1-81+ SW1990 cells; SW1990, 25 nM CYM): decrease of TRA-1-81^+ cells over time | percentage of TRA-1-81+ cells with or without acute GEM (TRA-1-81+ SW1990 cells; SW1990, 5 days, 25 nM CYM or 100 nM GEM plus 25 nM CYM): decreased the percentage of TRA-1-81^+ cells effectively regardless of GEM | TRA-1-81+ cells in time course (TRA-1-81+ SW1990GR cells; 25 nM CYM): decrease of TRA-1-81^+ cells over time | IC50 (TRA-1-81+ SW1990GR cells; flow cytometry, read-out: IC50, decrease of percentage of TRA-1-81+ cells): 5.1 ± 1.5 nM | UGT1A10 transcript levels [2]: decreased | expression of UGT1A10 in TRA-1-81+ and TRA-1-81− subpopulations ([3]; 25 nM CYM): significantly inhibits | UGT1A10 transcript levels ([3]; CYM treatment): decreased | proliferation (SW1990 cells): significantly decreased the proliferation | proliferation (SW1990GR cells [4]): sufficient to block the proliferation | tumor growth (luciferase intensity) (SW1990 xenograft tumors; 3 weeks, i.p. twice per week, GEM 50 mg/kg, CYM 2 mg/kg): grew more slowly | percentage of TRA-1-60+ cells in xenograft tumors (SW1990 xenograft tumors; CYM administration in GEM-treated tumors, immunofluorescence): ~13% | cell apoptosis in xenograft tumors (TUNEL+ cells) (SW1990 xenograft tumors; TUNEL assay): cell death increased | effect of ectopic UGT1A10 expression on Cymarin anti-chemoresistant activity [5]: partially rescues | effect on hESCs in a previous screen (hESCs): differentiation inducer of hESCs
